Test system: 217524-143-R1-J4-PDC spheroids with HUVEC/MSC, viability
Assay: Anticancer human tumor 217524-143-R1-J4-PDC patient-derived pancreatic carcinoma cell line growth inhibition [CLK]
Details: for IC50: curve of first compound; for viability, T/C: stronger effect = lower value; active = viability on the fitted dose curve at most 10% of control; inactive = the rest
Text: A high-throughput screen of multi-cell type tumor spheroids was designed to identify active combinations of […] and targeted small molecules. Complex spheroids include a stromal component modeled by human endothelial cells (HUVEC) and fibroblasts modeled by human mesenchymal stem cells (MSCs). The concentration ranges selected for each drug and investigational agent were based upon clinically achievable concentrations if the clinical Cmax of the agent was known.
Compounds. The drugs and investigational agents: cirtuvivint (SM08502; NSC835563), CC-671 (NSC850746), vemurafenib (NSC761431), tapotoclax (NSC804041), sotorasib (NSC818433), adagrasib (NSC831453), MRTX-1133 (NSC836407), BAY2416964 (NSC825713), copanlisib (NSC816437), inavolisib (NSC800729), abemaciclib (NSC768073), osimertinib (NSC779217), entinostat (NSC756642), eltanexor (KPT-8602, NSC794443), venetoclax (NSC766270), ceralasertib (NSC777638), bortezomib (NSC756655), olaparib (NSC753686), talazoparib (NSC767125), alisertib (NSC759677), peposertib (NSC802822), gemcitabine (NSC613327), 5-fluorouracil (NSC19893), SN-38 (NSC673596), oxaliplatin (NSC266046), paclitaxel (NSC125973), and doxorubicin (NSC123127), were obtained from the National Cancer Institute (NCI) Developmental Therapeutics Program Chemical Repository. The FDA-approved anticancer drug set is available from the Developmental Therapeutics Program at https://dtp.cancer.gov/organization/dscb/obtaining/available plates.htm. […] The stock solutions were prepared in dimethyl sulfoxide (DMSO, Sigma-Aldrich, St. Louis, MO, cat. D2650), except for the platinum complexes which were prepared in saline (Quality Biological, Gaithersburg, MD, cat. 114-055-101), at 800-fold the tested concentration and stored at -70 degrees C prior to their use. All drugs and investigational agents were tested over a range starting from a high concentration at or near the clinical Cmax and decreasing in half-log increments. If the clinical Cmax for an agent had not been determined, the highest concentration tested was 10 microM.
Cell Culture. All cells were maintained in an incubator at 37 degrees C and 5% CO2 with 95% humidity. The PDC lines were cultured according to standard operating procedures established by the NCI PDMR. Briefly, all PDCs were thawed and cultured in Matrigel-coated flasks prepared with a working solution of 1X Ham's F-12 nutrient mix, without supplementation (Invitrogen, Waltham, MA, cat. 11765054), 100 U/mL penicillin-streptomycin (Invitrogen, cat. 15140122), and 2.5% Matrigel (Corning Inc., Corning, NY, cat. 354248) for the first three passages. The 947758-054-R-J2-PDC line was cultured in 6B/Colon 1A media, which includes advanced DMEM/F-12 (Thermo Fisher Scientific, cat. 12634028), 10 mM HEPES (Thermo Fisher Scientific, cat. 15630080), 1X GlutaMAX supplement (Thermo Fisher Scientific, cat. 35050061), 0.1 mg/mL primocin (InvivoGen, cat. ant-pm-2), 10% defined fetal bovine serum, heat inactivated (HyClone Laboratories Inc., cat. SH30070.03HI), 1.25 mM N-Acetyl-L-cysteine (Sigma-Aldrich, cat. A9165), 10 mM nicotinamide (Sigma-Aldrich, cat. N0636), 1X B-27 supplement (Thermo Fisher Scientific, cat. 17504044), 1X N-2 supplement (Thermo Fisher Scientific, cat. 17502048), and 10 microM Y-27632 dihydrochloride (Tocris Bioscience, cat. 1254). The 876862-298-R-J1-PDC was cultured in 6E media, which includes all 6B/Colon 1A media components plus 50% L-WRN conditioned media (ATCC, cat. CRL-3276), 50 ng/mL recombinant human EGF recombinant protein (hEGF; Thermo Fisher Scientific, cat. PHG0311), 10 ng/mL recombinant human fibroblast growth factor 10 (hGFG-10; PeproTech, cat. 100-26), 1 ng/mL recombinant human fibroblast growth factor 2 (hFGF-2; PeproTech, cat. 100-18B), and 1 µM prostaglandin E2 (PGE2; Tocris, cat. 2296). The 227483-062-R1-J1-PDC line was cultured in Panc media, containing all 6E components except hFGF-2, with the addition of 500 nM SB-431542 (Selleckchem, cat. S1067) and 10 nM gastrin (Tocris, cat. 3006). […]

[1] = second compound 0.0316 µM, first compound 0.0316 µM
[2] = second compound 0.0316 µM, first compound 0.1 µM
[3] = second compound 0.0316 µM, first compound 0.316 µM
[4] = second compound 0.0316 µM, first compound 1 µM
[5] = second compound 0.1 µM, first compound 0.0316 µM
[6] = second compound 0.1 µM, first compound 0.1 µM
[7] = second compound 0.1 µM, first compound 0.316 µM
[8] = second compound 0.1 µM, first compound 1 µM
[9] = second compound 0.316 µM, first compound 0.0316 µM
[10] = second compound 0.316 µM, first compound 0.1 µM
[11] = second compound 0.316 µM, first compound 0.316 µM
[12] = second compound 0.316 µM, first compound 1 µM
[13] = second compound 1 µM, first compound 0.0316 µM
[14] = second compound 1 µM, first compound 0.1 µM
[15] = second compound 1 µM, first compound 0.316 µM
[16] = second compound 1 µM, first compound 1 µM
[17] = second compound 3.16 µM, first compound 0.0316 µM
[18] = second compound 3.16 µM, first compound 0.1 µM
[19] = second compound 3.16 µM, first compound 0.316 µM
[20] = second compound 3.16 µM, first compound 1 µM
[21] = second compound 10 µM, first compound 0.0316 µM
[22] = second compound 10 µM, first compound 0.1 µM
[23] = second compound 10 µM, first compound 0.316 µM
[24] = second compound 10 µM, first compound 1 µM
[25] = second compound 0.0316 µM, first compound 0.00316 µM
[26] = second compound 0.0316 µM, first compound 0.01 µM
[27] = second compound 0.1 µM, first compound 0.00316 µM
[28] = second compound 0.1 µM, first compound 0.01 µM
[29] = second compound 0.316 µM, first compound 0.00316 µM
[30] = second compound 0.316 µM, first compound 0.01 µM
[31] = second compound 1 µM, first compound 0.00316 µM
[32] = second compound 1 µM, first compound 0.01 µM
[33] = second compound 3.16 µM, first compound 0.00316 µM
[34] = second compound 3.16 µM, first compound 0.01 µM
[35] = second compound 10 µM, first compound 0.00316 µM
[36] = second compound 10 µM, first compound 0.01 µM
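Also: spheroids exposed to agents for seven days before reading.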

CC(Nc1ccc2c(c1)OCCn1cc(N3C(=O)OCC3C(F)F)nc1-2)C(N)=O (stereo unspecified) + CN1CCN(c2cc(C(=O)Nc3cc4cc(-c5cnn(C)c5)ccc4cn3)ccn2)CC1
< 31.6 nM: IC50 (second compound 0.1 µM) | IC50 (second compound 0.316 µM) | IC50 (second compound 1 µM) | IC50 (second compound 3.16 µM) | IC50 (second compound 10 µM)
61.8 nM: IC50 (second compound 0.0316 µM)
inactive: viability, T/C [1] 75.1% | viability, T/C [2] 30.5% | viability, T/C [3] 16.9% | viability, T/C [5] 40.8% | viability, T/C [6] 24.6% | viability, T/C [7] 10.2% | viability, T/C [9] 19.2% | viability, T/C [10] 9.36%
active: viability, T/C [4] 6.57% | viability, T/C (second compound 0.0316 µM, first compound 3.16 µM) 5.62% | viability, T/C (second compound 0.0316 µM, first compound 10 µM) 3.9% | viability, T/C [8] 5.26% | viability, T/C (second compound 0.1 µM, first compound 3.16 µM) 4.73% | viability, T/C (second compound 0.1 µM, first compound 10 µM) 3.98% | viability, T/C [11] 6.98% | viability, T/C [12] 4.68% | viability, T/C (second compound 0.316 µM, first compound 3.16 µM) 3.77% | viability, T/C (second compound 0.316 µM, first compound 10 µM) 3.27% | viability, T/C [13] 2.47% | viability, T/C [14] 1.63% | viability, T/C [15] 1.31% | viability, T/C [16] 1.2% | viability, T/C (second compound 1 µM, first compound 3.16 µM) 1.03% | viability, T/C (second compound 1 µM, first compound 10 µM) 0.93% | viability, T/C [17] 0.62% | viability, T/C [18] 0.64% | viability, T/C [19] 0.73% | viability, T/C [20] 0.58% | viability, T/C (second compound 3.16 µM, first compound 3.16 µM) 0.75% | viability, T/C (second compound 3.16 µM, first compound 10 µM) 0.64% | viability, T/C [21] 0.11% | viability, T/C [22] 0.18% | viability, T/C [23] 0.18% | viability, T/C [24] 0.13% | viability, T/C (second compound 10 µM, first compound 3.16 µM) 0.27% | viability, T/C (second compound 10 µM, first compound 10 µM) 0.2%

CCN1CCN(Cc2ccc(Nc3ncc(F)c(-c4cc(F)c5nc(C)n(C(C)C)c5c4)n3)nc2)CC1 + CN1CCN(c2cc(C(=O)Nc3cc4cc(-c5cnn(C)c5)ccc4cn3)ccn2)CC1
11 nM: IC50 (second compound 0.1 µM)
active: viability, T/C [31] 2.31% | viability, T/C [32] 2.94% | viability, T/C [13] 2.53% | viability, T/C [14] 3.19% | viability, T/C [15] 3.76% | viability, T/C [16] 3.89% | viability, T/C [33] 0.74% | viability, T/C [34] 0.96% | viability, T/C [17] 1.42% | viability, T/C [18] 1.28% | viability, T/C [19] 3% | viability, T/C [20] 4.17% | viability, T/C [35] 0.23% | viability, T/C [36] 0.28% | viability, T/C [21] 0.27% | viability, T/C [22] 0.28% | viability, T/C [23] 0.46% | viability, T/C [24] 0.58%
inactive: viability, T/C [25] 93.3% | viability, T/C [26] 62.5% | viability, T/C [1] 71.2% | viability, T/C [2] 60% | viability, T/C [3] 41% | viability, T/C [4] 44.6% | viability, T/C [27] 55.3% | viability, T/C [28] 53.4% | viability, T/C [5] 44.8% | viability, T/C [6] 39% | viability, T/C [7] 29.1% | viability, T/C [8] 32.6% | viability, T/C [29] 23.3% | viability, T/C [30] 21.7% | viability, T/C [9] 17.6% | viability, T/C [10] 17.6% | viability, T/C [11] 15.8% | viability, T/C [12] 17.1%
< 3.16 nM: IC50 (second compound 0.316 µM) | IC50 (second compound 1 µM) | IC50 (second compound 3.16 µM) | IC50 (second compound 10 µM)
224 nM: IC50 (second compound 0.0316 µM)

COc1c(OCCCN2CCOCC2)ccc2c3n(c(=NC(=O)c4cnc(N)nc4)nc12)CCN3 + CN1CCN(c2cc(C(=O)Nc3cc4cc(-c5cnn(C)c5)ccc4cn3)ccn2)CC1
< 3.16 nM: IC50 (second compound 0.1 µM) | IC50 (second compound 0.316 µM) | IC50 (second compound 1 µM) | IC50 (second compound 3.16 µM) | IC50 (second compound 10 µM)
active: viability, T/C [1] 8.37% | viability, T/C [2] 4.22% | viability, T/C [3] 3.38% | viability, T/C [4] 2.18% | viability, T/C [5] 7.97% | viability, T/C [6] 4.61% | viability, T/C [7] 2.58% | viability, T/C [8] 2.72% | viability, T/C [9] 5.45% | viability, T/C [10] 3.87% | viability, T/C [11] 2.75% | viability, T/C [12] 2.26% | viability, T/C [31] 2.94% | viability, T/C [32] 1.77% | viability, T/C [13] 1.27% | viability, T/C [14] 1.02% | viability, T/C [15] 0.59% | viability, T/C [16] 0.49% | viability, T/C [33] 0.65% | viability, T/C [34] 0.68% | viability, T/C [17] 0.5% | viability, T/C [18] 0.47% | viability, T/C [19] 0.5% | viability, T/C [20] 0.45% | viability, T/C [35] 0.14% | viability, T/C [36] 0.14% | viability, T/C [21] 0.19% | viability, T/C [22] 0.13% | viability, T/C [23] 0.25% | viability, T/C [24] 0.19%
inactive: viability, T/C [25] 72.3% | viability, T/C [26] 35.1% | viability, T/C [27] 40.3% | viability, T/C [28] 24.1% | viability, T/C [29] 18.8% | viability, T/C [30] 12.1%
6.3 nM: IC50 (second compound 0.0316 µM)

Source: PubChem BioAssay AID2060624 (Molecular Pharmacology Branch, DTP, NCI, 2025)
